The nature of data set [1]: Molar enthalpy of transition or fusion. The settings on record: Crystal; DSC.
The conditions of data set [2]: Crystal; DTA.
The nature of data set [3]: molar heat capacity at constant pressure. To be noted: 323.1 K; 101.33 kPa; Crystal; Small sample (50 mg) DSC.

Experimental findings from the NIST ThermoML archive (doi:10.1021/je7001094) are described below.

Numbers after ± are expanded uncertainties.

Turning to `COc1ccc([C@@H]2CC(=O)c3c(O)cc(O)cc3O2)cc1O`, in data set [1], the “Molar enthalpy of transition or fusion” value is 8.58 ± 0.191 kcal/mol. The Normal melting temperature in data set [2] was 226.07 ± 2 °C. For the same compound, the “molar heat capacity at constant pressure” value in data set [3] was 906 ± 530 J/K/mol.
For `O=C1CC(c2ccc(O)cc2)Oc2cc(O)cc(O)c21` (stereo not drawn) [4',5,7-trihydroxyflavanone], in that order: 9.51 ± 0.239 kcal/mol, 250.00 ± 1.2 °C and 259.7 ± 32 J/K/mol.
In the case of `O=c1cc(-c2ccccc2)oc2cc(O)cc(O)c12` [5,7-dihydroxyflavone], the “Molar enthalpy of transition or fusion” value in data set [1] came out at 9.37 ± 0.215 kcal/mol. Further, the Normal melting temperature in data set [2] worked out at 285.00 ± 2.2 °C. Besides, in data set [3], the “molar heat capacity at constant pressure” value came out at 200.6 ± 110 J/K/mol.
Turning to `O=c1c(O[C@@H]2O[C@H]([C@H](O)CO)[C@H](O)[C@H]2O)c(-c2ccc(O)c(O)c2)oc2cc(O)cc(O)c12` [isoquercitrin], in data set [1], the “Molar enthalpy of transition or fusion” value was 11.9 ± 0.502 kcal/mol. Further, in data set [2], the Normal melting temperature is 198.00 ± 3 °C. Moreover, the “molar heat capacity at constant pressure” value in data set [3] stood at 947.9 ± 30 J/K/mol.
In the case of `O=c1c(O)c(-c2ccc(O)c(O)c2)oc2cc(O)cc(O)c12` [quercetin], the “Molar enthalpy of transition or fusion” value in data set [1] is 9.92 ± 0.335 kcal/mol. For the same compound, the Normal melting temperature in data set [2] amounted to 322.00 ± 1.4 °C. In data set [3], the “molar heat capacity at constant pressure” value turned out to be 585.9 ± 170 J/K/mol.
For `C[C@@H]1O[C@@H](OC[C@H]2O[C@@H](Oc3c(-c4ccc(O)c(O)c4)oc4cc(O)cc(O)c4c3=O)[C@H](O)[C@@H](O)[C@@H]2O)[C@H](O)[C@H](O)[C@H]1O` [rutin], in that order: 19.7 ± 0.406 kcal/mol, 177.00 ± 3 °C and 915 ± 160 J/K/mol.
